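All cell lines were grown in 96-well plates and treated with compound for 48 hours. Abbreviation: GI50, concentration required for 50% inhibition of growth.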 Calls of active or inactive are those of the source. Rule as the data show it: active = GI50 up to about 1.1 µM and inactive = higher.
Columns and labels:
Assay in all cases: inhibition of tumour cell growth, NCI panel, 48 h
A549 = tested on: A549
CCRF-CEM = tested on: CCRF-CEM
HL-60 = tested on: HL-60
HOP-62 = tested on: HOP-62
IGROV-1 = tested on: IGROV-1
KM12 = tested on: KM12
LOX IMVI = tested on: LOX IMVI
M14 = tested on: M14
NCI-H522 = tested on: NCI-H522
NCI/ADR-RES = tested on: NCI/ADR-RES
OVCAR-5 = tested on: OVCAR-5
RXF 393 = tested on: RXF 393
SF-268 = tested on: SF-268
SF-295 = tested on: SF-295
SK-MEL-28 = tested on: SK-MEL-28
SNB-19 = tested on: SNB-19
SR = tested on: SR
SW-620 = tested on: SW-620
T47D = tested on: T47D
UACC-257 = tested on: UACC-257

Compound | GI50 (A549) | GI50 (CCRF-CEM) | GI50 (HL-60) | GI50 (HOP-62) | GI50 (IGROV-1) | GI50 (KM12) | GI50 (LOX IMVI) | GI50 (M14) | GI50 (NCI-H522) | GI50 (NCI/ADR-RES) | GI50 (OVCAR-5) | GI50 (RXF 393) | GI50 (SF-268) | GI50 (SF-295) | GI50 (SK-MEL-28) | GI50 (SNB-19) | GI50 (SR) | GI50 (SW-620) | GI50 (T47D) | GI50 (UACC-257)
CC(C)CNC(=O)CCc1cccc2c1oc1c(CCN)cccc12 | 18.5 µM (inactive) | 3.9 µM (inactive) | 2.53 µM (inactive) | 18.5 µM (inactive) | 10.2 µM (inactive) | 11.9 µM (inactive) | 12.5 µM (inactive) | 15.6 µM (inactive) | 13.2 µM (inactive) | 18.7 µM (inactive) | 15.1 µM (inactive) | 16 µM (inactive) | 15 µM (inactive) | 16.3 µM (inactive) | 11.5 µM (inactive) | 4.35 µM (inactive) | 8.43 µM (inactive) | 12 µM (inactive) | 13.7 µM (inactive) | 11.7 µM (inactive)
Nc1ccc(S(=O)(=O)C23CC4CC(CC(C4)C2)C3)cc1 | > 100 µM (inactive) | 49.8 µM (inactive) | 27.2 µM (inactive) | > 100 µM (inactive) | > 100 µM (inactive) | > 100 µM (inactive) | 70.8 µM (inactive) | > 100 µM (inactive) | > 100 µM (inactive) | > 100 µM (inactive) | > 100 µM (inactive) | 30.1 µM (inactive) | > 100 µM (inactive) | > 100 µM (inactive) | > 100 µM (inactive) | > 100 µM (inactive) | 61.7 µM (inactive) | > 100 µM (inactive) | 34.1 µM (inactive) | > 100 µM (inactive)
N#Cc1c(NC(=O)C(F)(F)F)sc2c3c(=O)c4ccccc4c(=O)c=3oc3ccccc3c12 | 19 µM (inactive) | 4.24 µM (inactive) | 4.46 µM (inactive) | 20.5 µM (inactive) | 11.9 µM (inactive) | 9.84 µM (inactive) | 13 µM (inactive) | 21.7 µM (inactive) | 7.89 µM (inactive) | 24.8 µM (inactive) | 30.7 µM (inactive) | 10 µM (inactive) | 7.98 µM (inactive) | 11.7 µM (inactive) | 20.4 µM (inactive) | 20.3 µM (inactive) | 3.28 µM (inactive) | 25.1 µM (inactive) | 21.4 µM (inactive) | 16.7 µM (inactive)
O=C(N/N=C\c1ccc2ccccc2c1)Nc1ccc([N+](=O)[O-])cc1 | 26.4 µM (inactive) | 28.6 µM (inactive) | > 57.9 µM (inactive) | 27 µM (inactive) | 29.7 µM (inactive) | 33.4 µM (inactive) | 30.5 µM (inactive) | 32.2 µM (inactive) | 16.3 µM (inactive) | 20.9 µM (inactive) | 22.5 µM (inactive) | 26.4 µM (inactive) | 27 µM (inactive) | 22.5 µM (inactive) | 26.2 µM (inactive) | 24.3 µM (inactive) | 43 µM (inactive) | 32.7 µM (inactive) | 17.9 µM (inactive) | 29 µM (inactive)
COC(=O)/C=C\c1ccc2c(c1)CC1(C2)Cc2ccc(/C=C/C(=O)OC)cc2C1 (stereo not given) | > 31.6 µM (inactive) | > 31.6 µM (inactive) | > 31.6 µM (inactive) | 15.2 µM (inactive) | > 31.6 µM (inactive) | > 31.6 µM (inactive) | > 31.6 µM (inactive) | > 31.6 µM (inactive) | 17.4 µM (inactive) | > 31.6 µM (inactive) | > 31.6 µM (inactive) | > 31.6 µM (inactive) | > 100 µM (inactive) | 21.5 µM (inactive) | > 100 µM (inactive) | 27 µM (inactive) | 5.57 µM (inactive) | > 100 µM (inactive) | > 31.6 µM (inactive) | > 31.6 µM (inactive)
Cc1nc2ccccc2n1Cc1ccc(NC(=S)Nc2ccccc2)cc1 | 80 µM (inactive) | 36.8 µM (inactive) | 24.8 µM (inactive) | > 100 µM (inactive) | > 100 µM (inactive) | 54.6 µM (inactive) | 70.6 µM (inactive) | 56.1 µM (inactive) | 21.9 µM (inactive) | 72.3 µM (inactive) | 37.1 µM (inactive) | 60 µM (inactive) | 91 µM (inactive) | 34.3 µM (inactive) | 66.7 µM (inactive) | > 100 µM (inactive) | 20.2 µM (inactive) | 45 µM (inactive) | 18.6 µM (inactive) | 32.7 µM (inactive)
COC(=O)C(Cc1c[nH]c2ccccc12)NC1=Nc2ccncc2S(=O)(=O)N1c1ccccc1 (stereo not given) | 59 µM (inactive) | 14.1 µM (inactive) | 0.199 µM (active) | 67.3 µM (inactive) | 31 µM (inactive) | 31.3 µM (inactive) | 28.2 µM (inactive) | 35.6 µM (inactive) | 28 µM (inactive) | 33 µM (inactive) | 41 µM (inactive) | 19.9 µM (inactive) | 38.9 µM (inactive) | 52.1 µM (inactive) | 28.4 µM (inactive) | > 100 µM (inactive) | 20.2 µM (inactive) | 28.1 µM (inactive) | 20.5 µM (inactive) | 50.1 µM (inactive)
CC[C@@H](C)[C@H](NC(=O)[C@H](Cc1ccccc1)NCC(F)(F)F)C(=O)OC(C)(C)C | > 100 µM (inactive) | 74.8 µM (inactive) | > 100 µM (inactive) | > 100 µM (inactive) | > 100 µM (inactive) | > 100 µM (inactive) | > 100 µM (inactive) | > 100 µM (inactive) | > 100 µM (inactive) | > 100 µM (inactive) | > 100 µM (inactive) | 42 µM (inactive) | > 100 µM (inactive) | > 100 µM (inactive) | > 100 µM (inactive) | > 100 µM (inactive) | > 100 µM (inactive) | > 100 µM (inactive) | 25.6 µM (inactive) | 81.5 µM (inactive)
O=C1COCCN1C(=O)c1ccccc1Cl | > 100 µM (inactive) | > 100 µM (inactive) | > 100 µM (inactive) | > 100 µM (inactive) | > 100 µM (inactive) | > 100 µM (inactive) | > 100 µM (inactive) | > 100 µM (inactive) | > 100 µM (inactive) | > 100 µM (inactive) | > 100 µM (inactive) | > 100 µM (inactive) | > 100 µM (inactive) | > 100 µM (inactive) | > 100 µM (inactive) | > 100 µM (inactive) | > 100 µM (inactive) | > 100 µM (inactive) | > 100 µM (inactive) | > 100 µM (inactive)
Cc1nc2sc3cccc(Cl)c3n2c(=O)c1/N=N/c1ccc(Cl)cc1 | 77.8 µM (inactive) | > 100 µM (inactive) | > 100 µM (inactive) | 75.2 µM (inactive) | 63.8 µM (inactive) | > 100 µM (inactive) | 58.1 µM (inactive) | > 100 µM (inactive) | 45.7 µM (inactive) | > 100 µM (inactive) | > 100 µM (inactive) | > 100 µM (inactive) | 58.9 µM (inactive) | 53.1 µM (inactive) | > 100 µM (inactive) | > 100 µM (inactive) | > 100 µM (inactive) | 66.5 µM (inactive) | 45.3 µM (inactive) | 98.6 µM (inactive)
CC1CN(c2cc3c(cc2F)c(=O)c(C(=O)O)cn3-c2ccc(F)cn2)CC(C)N1 (stereo not given) | > 100 µM (inactive) | > 100 µM (inactive) | > 100 µM (inactive) | > 100 µM (inactive) | > 100 µM (inactive) | > 100 µM (inactive) | > 100 µM (inactive) | > 100 µM (inactive) | 22.5 µM (inactive) | > 100 µM (inactive) | > 100 µM (inactive) | > 100 µM (inactive) | > 100 µM (inactive) | > 100 µM (inactive) | > 100 µM (inactive) | > 100 µM (inactive) | > 100 µM (inactive) | > 100 µM (inactive) | > 100 µM (inactive) | > 100 µM (inactive)
COC(=O)C1=C(OC(=O)/C(=C/c2ccccc2)c2ccc(Cl)cc2Cl)C(C(=O)OC)[C@@]2(O)[C@@H](C(=O)OC)[C@H](C)C[C@@H]1[C@@H]2C(=O)OC (stereo not given in full) | > 100 µM (inactive) | > 100 µM (inactive) | > 100 µM (inactive) | > 100 µM (inactive) | > 100 µM (inactive) | > 100 µM (inactive) | > 100 µM (inactive) | > 100 µM (inactive) | > 100 µM (inactive) | > 100 µM (inactive) | > 100 µM (inactive) | > 100 µM (inactive) | > 100 µM (inactive) | > 100 µM (inactive) | > 100 µM (inactive) | > 100 µM (inactive) | > 100 µM (inactive) | > 100 µM (inactive) | > 100 µM (inactive) | > 100 µM (inactive)
CC(C)(C)OC(=O)CN1CCN(CC(=O)N2CCN(C(=O)OCc3ccccc3)CC2)CCN(CC(=O)OC(C)(C)C)CCN(CC(=O)N2CCN(C(=O)OCc3ccccc3)CC2)CC1 | 3.27 µM (inactive) | 1.41 µM (inactive) | 0.225 µM (active) | 3.7 µM (inactive) | 0.853 µM (active) | 1.42 µM (inactive) | 1.25 µM (inactive) | 3.21 µM (inactive) | 0.785 µM (active) | 14.3 µM (inactive) | 13.1 µM (inactive) | 3.61 µM (inactive) | 2.48 µM (inactive) | 3.35 µM (inactive) | 4.93 µM (inactive) | 3.48 µM (inactive) | 0.407 µM (active) | 1.67 µM (inactive) | 3.12 µM (inactive) | 2.54 µM (inactive)

— ChEMBL document CHEMBL1201862, “PubChem BioAssay data set” (2004)
